Experimental data published in PubChem BioAssay (NCI).
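Results reflect a 48-hour exposure of cells in 96-well plates to compound at five concentrations. Here, GI50 denotes the concentration required for 50% inhibition of growth. TGI: concentration producing complete growth inhibition.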

Columns and labels:
Assay in all cases: inhibition of tumour cell growth, NCI panel, 48 h
[1] = test system: KM12 colon
[2] = test system: HL-60(TB) leukemia
[3] = test system: HOP-62 NSCLC
[4] = test system: HOP-92 NSCLC
[5] = test system: SK-MEL-5 melanoma
[6] = test system: NCI-H23 lung
[7] = test system: SK-MEL-2 melanoma
[8] = test system: SN12C renal
[9] = test system: U251 CNS
[10] = test system: K-562 leukemia
[11] = test system: OVCAR-8 ovarian
[12] = test system: TK-10 renal
[13] = test system: UACC-257 melanoma
[14] = test system: SF-268 CNS
[15] = test system: HCT-15 colon
[16] = test system: SNB-75 CNS
[17] = test system: RXF 393 renal
[18] = test system: NCI-H522 lung
[19] = test system: HCT-116 colon
[20] = test system: OVCAR-4 ovarian
[21] = test system: OVCAR-3 ovarian
[22] = test system: SK-MEL-28 melanoma
[23] = test system: NCI-H226 lung
[24] = test system: MALME-3M melanoma
[25] = test system: 786-0 renal
[26] = test system: SW-620 colon
[27] = test system: A549 NSCLC
[28] = test system: T-47D breast
[29] = test system: HT29 colon
[30] = test system: DU-145 prostate
[31] = test system: ACHN renal
[32] = test system: UACC-62 melanoma
[33] = test system: SF-539 CNS
[34] = test system: SR leukemia
[35] = test system: COLO 205 colon
[36] = test system: NCI/ADR-RES ovarian
[37] = test system: CCRF-CEM leukemia
[38] = test system: MCF7 breast
[39] = test system: SK-OV-3 ovarian
[40] = test system: RPMI-8226 leukemia
[41] = test system: BT-549 breast
[42] = test system: OVCAR-5 ovarian
[43] = test system: HCC-2998 colon
[44] = test system: HS 578T breast
[45] = test system: IGROV1 ovarian
[46] = test system: CAKI-1 renal
[47] = test system: MOLT-4 leukemia
[48] = test system: NCI-H460 lung
[49] = test system: A498 renal
[50] = test system: MDA-MB-231 breast
[51] = test system: SNB-19 CNS
[52] = test system: LOX IMVI melanoma
[53] = test system: SF-295 CNS
[54] = test system: UO-31 renal
[55] = test system: M14 melanoma
[56] = test system: PC-3 prostate
[57] = test system: EKVX NSCLC
[58] = test system: MDA-MB-435

COc1ccc2c(c1)[n+](=O)c(/C=C/C(=O)c1cc(OC)c(OC)c(OC)c1)c(C)n2[O-]
GI50 [1]: 14.4 µM
TGI [1]: 60.5 µM
GI50 [2]: 4.98 µM
TGI [2]: 22.4 µM
GI50 [3]: 19.4 µM
TGI [3]: 47 µM
GI50 [4]: 2.56 µM
TGI [4]: 19.1 µM
GI50 [5]: 12.6 µM
TGI [5]: 34.3 µM
GI50 [6]: 13.7 µM
TGI [6]: 34 µM
GI50 [7]: 11.5 µM
TGI [7]: 28.3 µM
GI50 [8]: 6.33 µM
TGI [8]: 48.5 µM
GI50 [9]: 5.94 µM
TGI [9]: 47 µM
GI50 [10]: 2.59 µM
TGI [10]: > 100 µM
GI50 [11]: 5.3 µM
TGI [11]: > 100 µM
GI50 [12]: 8.74 µM
TGI [12]: > 100 µM
GI50 [13]: 9.61 µM
TGI [13]: > 100 µM
GI50 [14]: 6.11 µM
TGI [14]: 45.6 µM
GI50 [15]: 3.79 µM
TGI [15]: 23.2 µM
GI50 [16]: 11.9 µM
TGI [16]: 43.1 µM
GI50 [17]: 3.98 µM
TGI [17]: > 100 µM
GI50 [18]: 1.32 µM
TGI [18]: 3.45 µM
GI50 [19]: 3.23 µM
TGI [19]: 14.2 µM
GI50 [20]: 9.35 µM
TGI [20]: > 100 µM
GI50 [21]: 2.04 µM
TGI [21]: 11.7 µM
GI50 [22]: 12.3 µM
TGI [22]: 50.9 µM
GI50 [23]: 22.1 µM
TGI [23]: > 100 µM
GI50 [24]: 17 µM
TGI [24]: > 100 µM
GI50 [25]: 13.7 µM
TGI [25]: 50.3 µM
GI50 [26]: 4.03 µM
TGI [26]: 47.6 µM
GI50 [27]: 21.5 µM
TGI [27]: > 100 µM
GI50 [28]: 2.56 µM
TGI [28]: 14.7 µM
GI50 [29]: 4.35 µM
TGI [29]: 50.9 µM
GI50 [30]: 2.1 µM
TGI [30]: 13.4 µM
GI50 [31]: 5.66 µM
TGI [31]: 23.6 µM
GI50 [32]: 2.9 µM
TGI [32]: 14.1 µM
GI50 [33]: 15.7 µM
TGI [33]: 38.8 µM
GI50 [34]: 0.644 µM
TGI [34]: 2.41 µM
GI50 [35]: 1.65 µM
TGI [35]: 11.3 µM
GI50 [36]: 11.3 µM
TGI [36]: 39.5 µM
GI50 [37]: 1.87 µM
TGI [37]: 8.08 µM
GI50 [38]: 3.14 µM
TGI [38]: > 100 µM
GI50 [39]: 23.9 µM
TGI [39]: 92.8 µM
GI50 [40]: 3.05 µM
TGI [40]: 15.6 µM
GI50 [41]: 6.11 µM
TGI [41]: 65 µM
GI50 [42]: 28.7 µM
TGI [42]: > 100 µM
GI50 [43]: 23.4 µM
TGI [43]: 68.7 µM
GI50 [44]: 4.72 µM
TGI [44]: 46.6 µM
GI50 [45]: 18.2 µM
TGI [45]: > 100 µM
GI50 [46]: 5.31 µM
TGI [46]: > 100 µM
GI50 [47]: 2.55 µM
TGI [47]: 25.3 µM
GI50 [48]: 13.3 µM
TGI [48]: 45.5 µM
GI50 [49]: 20.5 µM
TGI [49]: 54.2 µM
GI50 [50]: 12.6 µM
TGI [50]: 88.4 µM
GI50 [51]: 29.7 µM
TGI [51]: > 100 µM
GI50 [52]: 3.95 µM
TGI [52]: 28.6 µM
GI50 [53]: 44.8 µM
TGI [53]: > 100 µM
GI50 [54]: 3.57 µM
TGI [54]: > 100 µM
GI50 [55]: 3.55 µM
TGI [55]: 23.5 µM
GI50 [56]: 15.7 µM
TGI [56]: > 100 µM
GI50 [57]: 5.82 µM
TGI [57]: > 100 µM
GI50 [58]: 6.65 µM
TGI [58]: > 100 µM
